From patent US20260248879A1, “METHODS OF USING A GCG/GLP1 CO-AGONIST FOR THERAPY” (ELI LILLY AND COMPANY, priority 2022, published 2026) come the findings set out here.

For data set [1], the system named is patients with T2DM. Description: Example 1 study: adverse events. The class given is in vivo. The text has this:
Investigators are responsible for monitoring the safety of patients who have entered this study. The investigator is responsible for the appropriate medical care of patients during the study. Investigators document their review of each laboratory safety report. The investigator remains responsible for following, through an appropriate health care option,
AEs that are serious or otherwise medically important, considered related to Compound 1 or the study, or that caused the patient to discontinue Compound 1 before completing the study. The patient is followed until the event resolves, stabilizes with appropriate diagnostic evaluation, or is reasonably explained. The frequency of follow-up evaluations of the AE is left to the discretion of the investigator.
The investigator records all relevant AE and SAE information. After receiving consent from the patient, study site personnel record the occurrence and nature of each patient's preexisting conditions, including clinically significant signs and symptoms of the disease under treatment in the study. Additionally, site personnel record any change in the condition(s) and the occurrence and nature of any AEs.
The investigator interprets and document whether or not an AE has a reasonable possibility of being related to study treatment, or a study procedure, taking into account the disease, concomitant treatment, or pathologies.
A “reasonable possibility” means that there is a potential cause and effect relationship between Compound 1, study device, and/or study procedure and the AE. Planned surgeries should not be reported as AEs unless the underlying medical condition has worsened during the course of the study.
A Serious Adverse Event (SAE) is any AE from this study that results in one of the following: • death • initial or prolonged inpatient hospitalization • a life-threatening experience (i.e., immediate risk of dying) • persistent or significant disability/incapacity • congenital anomaly/birth defect • important medical events that may not be immediately life-threatening or result in death or hospitalization but may jeopardize the patient or may require intervention to prevent one of the other outcomes listed in the definition above.
All AEs occurring after signing the ICF are recorded and assessed for serious criteria.

Data set [2] relates to patients with T2DM. Description: Example 1 study: appetite analysis (VAS). Format: in vivo, human. The text has this: To explore the effects of Compound 1 on meal intake and appetite sensation, subjects are asked to rate their appetite sensations using a 100-mm visual analogue scale
(VAS) for parameters of hunger, fullness, satiety, and prospective food consumption in the fasted state while inpatient as well as on scheduled outpatient visits. The VAS is a validated tool to assess appetite sensation parameters (Flint et al., Int J Obes Relat Metab Disord., 2000; 24(1):38-48). The VAS is presented as a 10-cm (100-mm) line, anchored by verbal descriptors, usually “extremely” and “not at all.” Subjects are required to rate their subjective sensations on four 100-mm scales combined with questions similar to the following: • “How hungry do you feel?” • “How satisfied do you feel?” • “How full do you feel?” • “How much do you think you could eat?”
Overall appetite score is calculated as the average of the 4 individual scores: satiety plus fullness plus (100−prospective food consumption) plus (100−hunger)/4 (van Can et al., Int J Obes (Lond). 2014; 38(6):784-793). The higher overall appetite score indicates less appetite, and the lower score indicates more appetite.
In respect of […], the satiety VAS (after fasting) is completed at baseline and Days 1, 29, 57, 78 and 80.
In respect of […], the satiety VAS (after fasting) is completed at baseline and Days 1, 22, 43, 64, 85, 106 and 108.
When the satiety VAS assessment coincides with the MMTT, it is performed pre-meal and 1 hour and 4 hours post MMTT.

Where [3] appears, read: both treatment groups, over dosing periods.

Regarding `CC(C)C[C@H](NC(=O)[C@H](CC(C)C)NC(=O)[C@H](Cc1c[nH]c2ccccc12)NC(=O)[C@H](CCC(=O)O)NC(=O)[C@@H](NC(=O)[C@H](Cc1ccccc1)NC(=O)[C@H](CCC(=O)O)NC(=O)[C@H](CCCCNC(=O)COCCOCCNC(=O)COCCOCCNC(=O)CC[C@H](NC(=O)CCCCCCCCCCCCCCCCCCC(=O)O)C(=O)O)NC(=O)[C@H](C)NC(=O)[C@H](CCCCN)NC(=O)[C@H](CCCCN)NC(=O)[C@H](CCC(=O)O)NC(=O)[C@H](CC(=O)O)NC(=O)[C@H](CC(C)C)NC(=O)[C@H](Cc1ccc(O)cc1)NC(=O)[C@H](CCCCN)NC(=O)[C@H](CO)NC(=O)[C@H](Cc1ccc(O)cc1)NC(=O)[C@H](CC(=O)O)NC(=O)[C@H](CO)NC(=O)[C@@H](NC(=O)[C@H](Cc1ccccc1)NC(=O)[C@@H](NC(=O)CNC(=O)[C@H](CCC(N)=O)NC(=O)C(C)(C)NC(=O)[C@@H](N)Cc1c[nH]cn1)[C@@H](C)O)[C@@H](C)O)C(C)C)C(=O)N[C@@H](CCC(=O)O)C(=O)NCC(=O)NCC(=O)N1CCC[C@H]1C(=O)N[C@@H](CO)C(=O)N[C@@H](CO)C(=O)NCC(N)=O` [Compound 1], in the data set with patients with T2DM [1] (in vivo), the “SAE reported, MedDRA preferred term” value was “Sarcoidosis”; the “abdominal pain, number of participants” value came to 1; the “abdominal pain, percentage of participants” value was 5.6%; the “constipation, number of participants” value was found to be 2. Also, in the data set with patients with T2DM [1] (in vivo), the “constipation, percentage of participants” value was 11.1%; the “diarrhea, number of participants” value was 4; the “diarrhea, percentage of participants” value is on record as 22.2%; the “eructation, number of participants” value is on record as 4. Besides, in the data set with patients with T2DM [1] (in vivo), the “eructation, percentage of participants” value is 22.2%; the “nausea, number of participants” value was 7; the “nausea, percentage of participants” value is 38.9%; the “number of patients treated with study intervention reporting an SAE” value was found to be 1. In the data set with patients with T2DM [1] (in vivo), the “number of patients with TEAEs” value is 17; the “vomiting, number of participants” value stood at 5; the “vomiting, percentage of participants” value is listed as 27.8%. The deaths result in the data set on patients with T2DM [1] (whole study) is recorded as “No deaths occurred”. Also, in the data set with patients with T2DM [2] (all treatment groups incl. placebo, 12-week or 16-week dosing, higher score = less appetite), the overall appetite scores entry is listed as “generally increase from baseline”. The hunger scores result in the data set with patients with T2DM [2] (both treatment groups, majority of time points) is listed as “decrease from baseline”. Moreover, in the data set with patients with T2DM [2] (setting [3]), the fullness scores entry is on record as “increased from baseline” and the satiety scores entry is “decrease from baseline”. Also, in the data set with patients with T2DM [2] (higher dose cohort (FIG. 8)), the VAS appetite assessments entry is on record as “reduced hunger, increased satiety, decreased overall appetite”.
